Assay results taken from US20260049071A1, “PROTEIN TYROSINE KINASE INHIBITOR AND MEDICAL USE THEREOF” (BEYANG THERAPEUTICS CO., LTD., priority 2022, published 2026).

What was measured:
[1] = target: FLT4 (VEGFR3) (Homo sapiens (Human), UniProt P35916); assay: Kinase inhibition, Mobility Shift Assay (VEGFR3); assay type: biochemical
Summary of the method: (§1)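 Mobility shift assay: each kinase preincubated 10 min at room temperature with compound, then reacted with FAM-labeled peptide, MgCl2 and ATP at 28° C. for varying times. Substrate-to-product conversion read on Caliper; % inhibition normalised to no-kinase and DMSO controls, and IC50 fitted.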

[2] = target: VEGFR2 autophosphorylation (pVEGFR2) in HUVEC cells (Homo sapiens (Human), UniProt P35968); assay: Inhibition of VEGF-induced VEGFR2 autophosphorylation in HUVEC cells (ELISA); assay type: cell-based; conditions: 50 ng/ml human VEGF, compound 1 h
Excerpt: Vascular endothelial growth factor receptor 2 (VEGFR2) is a primary receptor for VEGF-induced endothelial cell signaling. After ligand binding, VEGFR2 is autophosphorylated and activated. The main function of signaling from VEGFR2 is to induce vascularization during development and after tissue injury, and to bypass blocked blood vessels. Pathologically, VEGF and VEGFR2 are involved in tumor angiogenesis and vascular leakage. They are considered to be main participants in many different cancers and ocular diseases that accompany pathological neovascularization. This assay measured the ability of the compounds to inhibit VEGF-induced VEGFR2 autophosphorylation (pVEGFR2) in HUVEC cells by using ELISA.
Culture cells in a cell culture flask to reach a fusion degree of 60%-80% before cell inoculation. Dilute the cell suspension to […] with a pre-warmed complete medium. Add 80 μL of the cell suspension to all wells of a 96-well cell plate (Corning-3599); and incubate the plate overnight at 37° C. in the presence of 5% CO2. Dissolve the compound powder to 10 mM with DMSO and store it in a nitrogen cabinet. Compound dilution plate: Add a reference compound Ponatinib or a compound to be tested to a 96 V-well plate (Axygen-WIpp 2280) at concentrations achieved as follows: performing 3-fold gradient dilution starting from 5 mM (5 μL of 10 mM compound solution plus 5 μL of DMSO) for a total of 8 concentration points. […] Transfer 20 μL of the diluted compound from the intermediate plate to a cell plate. Then, incubate the cell plate for 1 h at 37° C. in the presence of 5% CO2. After the compound was treated for 1 h, add 25 μL of 250 ng/ml human VEGF at a final concentration of 50 ng/ml to a 96-well plate; and incubate the plate for 5 min at 37° C. in the presence of 5% CO2, centrifuge the plate for 10 min at 3,000 rpm, remove the medium and wash the cells once with 300 μL of pre-chilled DPBS per well. Then, centrifuge the plate for 10 min at 4,000 rpm, remove DPBS, and add 110 μL of pre-chilled 1× cell lysis buffer per well to the 96-well plate. Shake the plate for 40 min at 4° C. Then, freeze the plate in a refrigerator at −80° C. On the next day, remove the plate from the refrigerator at −80° C., thaw the plate, centrifuge the plate for 10 min at 3500 rpm, and add 100 μL of the supernatant per well to an ELISA plate. Seal the plate and incubate it for 2 h at 37° C. Wash the wells 4 times with 1× wash buffer. Add 100 μL of recombinant detection antibody per well. Seal the plate, incubate the plate for 1 h at 37° C., and repeat the step of plate washing. Add 100 μL of secondary antibody per well. Seal the plate, incubate the plate for 30 min at 37° C., and repeat the step of plate washing. Add 100 μL of TMB (protected from light) per well. Seal the plate, incubate the plate for 30 min at 37° C., and add 100 μL of the stop solution per well. Gently shake for 30 sec, measure the absorbance with a SpectraMax® 340 PC 384 Absorbance Microplate Reader within 30 min, and read an optical density value at 450 nm. Conduct data analysis using XL Fit software:
Conduct curve fitting using the 4 Parameter Logistic Model or Sigmoidal Dose-Response Model:
X indicating the log value of compound concentration, Y indicating the inhibition ratio (% inhibition), Top indicating the readout of the negative control wells, and bottom indicating the readout of the positive control well.

[3] = target: FLT1 (VEGFR1) (Homo sapiens (Human), UniProt P17948); assay: Kinase inhibition, Mobility Shift Assay (VEGFR1); assay type: biochemical
Summary of the method: as §1

[4] = target: KDR (VEGFR2) (Homo sapiens (Human), UniProt P35968); assay: Kinase inhibition, Mobility Shift Assay (VEGFR2); assay type: biochemical
Summary of the method: as §1

[5] = tested on: melanin; assay: Binding capacity of compounds to melanin; assay type: in vitro ADME; conditions: Sepia officinalis (cuttlefish), melanin suspension (1 mg/mL); 1 mg/mL melanin suspension in PBS pH 7.4, 2 μM compound, 2 h at 37° C.; read-out: Fu % (percentage of free drug, not bound to melanin)
Summary of the method: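 Compound at 2 μM final incubated with 1 mg/mL Sepia melanin suspension in PBS pH 7.4 for 2 h at 37 °C with shaking; blank control in PBS with 0.1% BSA. Supernatant concentrations measured by LC-MS/MS; bound fraction from melanin versus control samples, free fraction as 100 − Fb.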

[6] = target: EGFR (Homo sapiens (Human), UniProt P00533); assay: Kinase inhibition, Mobility Shift Assay (EGFR); assay type: biochemical
Summary of the method: as §1

Chain of KDR (VEGFR2) (P35968 790-1356): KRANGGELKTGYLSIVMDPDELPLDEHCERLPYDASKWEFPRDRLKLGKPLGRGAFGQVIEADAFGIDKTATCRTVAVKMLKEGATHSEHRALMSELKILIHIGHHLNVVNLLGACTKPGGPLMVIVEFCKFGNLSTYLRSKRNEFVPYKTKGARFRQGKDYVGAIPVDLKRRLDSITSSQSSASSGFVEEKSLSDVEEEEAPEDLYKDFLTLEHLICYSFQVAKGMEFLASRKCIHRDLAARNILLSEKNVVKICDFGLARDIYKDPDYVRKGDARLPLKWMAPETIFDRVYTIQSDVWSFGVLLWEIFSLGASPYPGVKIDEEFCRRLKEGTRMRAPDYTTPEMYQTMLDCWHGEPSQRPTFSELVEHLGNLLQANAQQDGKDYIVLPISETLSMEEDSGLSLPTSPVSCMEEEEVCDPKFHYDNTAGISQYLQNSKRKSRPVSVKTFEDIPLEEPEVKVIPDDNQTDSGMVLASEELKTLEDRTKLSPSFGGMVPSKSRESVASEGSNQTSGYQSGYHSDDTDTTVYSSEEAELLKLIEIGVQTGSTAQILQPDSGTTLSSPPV
Chain of EGFR (P00533 25-1210): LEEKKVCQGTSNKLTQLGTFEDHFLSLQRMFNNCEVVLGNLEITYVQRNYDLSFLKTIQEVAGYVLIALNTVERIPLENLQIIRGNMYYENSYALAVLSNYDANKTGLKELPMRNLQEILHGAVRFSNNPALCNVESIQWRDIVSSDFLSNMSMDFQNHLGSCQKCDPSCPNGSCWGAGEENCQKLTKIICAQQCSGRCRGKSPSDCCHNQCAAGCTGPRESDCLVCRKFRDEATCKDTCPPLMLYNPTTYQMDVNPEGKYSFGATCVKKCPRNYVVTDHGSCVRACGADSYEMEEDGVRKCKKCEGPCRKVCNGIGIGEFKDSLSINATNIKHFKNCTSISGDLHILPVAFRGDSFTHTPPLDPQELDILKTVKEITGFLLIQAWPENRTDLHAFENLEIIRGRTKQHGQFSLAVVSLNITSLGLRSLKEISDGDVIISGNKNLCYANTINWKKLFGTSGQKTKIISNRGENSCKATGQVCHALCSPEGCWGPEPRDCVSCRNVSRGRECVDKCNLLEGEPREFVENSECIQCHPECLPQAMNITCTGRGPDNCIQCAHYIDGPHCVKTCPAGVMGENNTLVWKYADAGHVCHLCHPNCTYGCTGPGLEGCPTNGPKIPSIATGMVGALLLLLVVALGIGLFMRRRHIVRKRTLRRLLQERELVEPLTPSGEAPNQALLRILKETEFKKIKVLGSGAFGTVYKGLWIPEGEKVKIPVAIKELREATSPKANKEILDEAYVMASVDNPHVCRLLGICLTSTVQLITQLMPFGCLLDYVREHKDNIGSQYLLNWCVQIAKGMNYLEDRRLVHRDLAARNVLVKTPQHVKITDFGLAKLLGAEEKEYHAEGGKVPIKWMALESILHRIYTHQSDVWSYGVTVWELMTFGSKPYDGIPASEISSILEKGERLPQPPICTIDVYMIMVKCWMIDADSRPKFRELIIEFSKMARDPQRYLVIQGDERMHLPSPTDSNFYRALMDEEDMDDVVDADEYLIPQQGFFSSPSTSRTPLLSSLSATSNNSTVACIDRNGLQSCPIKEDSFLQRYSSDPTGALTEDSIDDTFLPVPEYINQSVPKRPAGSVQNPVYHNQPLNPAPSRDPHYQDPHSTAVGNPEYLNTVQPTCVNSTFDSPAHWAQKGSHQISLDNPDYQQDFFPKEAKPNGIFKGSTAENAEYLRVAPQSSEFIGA
Chain of VEGFR2 autophosphorylation (pVEGFR2) in HUVEC cells (P35968 20-1356): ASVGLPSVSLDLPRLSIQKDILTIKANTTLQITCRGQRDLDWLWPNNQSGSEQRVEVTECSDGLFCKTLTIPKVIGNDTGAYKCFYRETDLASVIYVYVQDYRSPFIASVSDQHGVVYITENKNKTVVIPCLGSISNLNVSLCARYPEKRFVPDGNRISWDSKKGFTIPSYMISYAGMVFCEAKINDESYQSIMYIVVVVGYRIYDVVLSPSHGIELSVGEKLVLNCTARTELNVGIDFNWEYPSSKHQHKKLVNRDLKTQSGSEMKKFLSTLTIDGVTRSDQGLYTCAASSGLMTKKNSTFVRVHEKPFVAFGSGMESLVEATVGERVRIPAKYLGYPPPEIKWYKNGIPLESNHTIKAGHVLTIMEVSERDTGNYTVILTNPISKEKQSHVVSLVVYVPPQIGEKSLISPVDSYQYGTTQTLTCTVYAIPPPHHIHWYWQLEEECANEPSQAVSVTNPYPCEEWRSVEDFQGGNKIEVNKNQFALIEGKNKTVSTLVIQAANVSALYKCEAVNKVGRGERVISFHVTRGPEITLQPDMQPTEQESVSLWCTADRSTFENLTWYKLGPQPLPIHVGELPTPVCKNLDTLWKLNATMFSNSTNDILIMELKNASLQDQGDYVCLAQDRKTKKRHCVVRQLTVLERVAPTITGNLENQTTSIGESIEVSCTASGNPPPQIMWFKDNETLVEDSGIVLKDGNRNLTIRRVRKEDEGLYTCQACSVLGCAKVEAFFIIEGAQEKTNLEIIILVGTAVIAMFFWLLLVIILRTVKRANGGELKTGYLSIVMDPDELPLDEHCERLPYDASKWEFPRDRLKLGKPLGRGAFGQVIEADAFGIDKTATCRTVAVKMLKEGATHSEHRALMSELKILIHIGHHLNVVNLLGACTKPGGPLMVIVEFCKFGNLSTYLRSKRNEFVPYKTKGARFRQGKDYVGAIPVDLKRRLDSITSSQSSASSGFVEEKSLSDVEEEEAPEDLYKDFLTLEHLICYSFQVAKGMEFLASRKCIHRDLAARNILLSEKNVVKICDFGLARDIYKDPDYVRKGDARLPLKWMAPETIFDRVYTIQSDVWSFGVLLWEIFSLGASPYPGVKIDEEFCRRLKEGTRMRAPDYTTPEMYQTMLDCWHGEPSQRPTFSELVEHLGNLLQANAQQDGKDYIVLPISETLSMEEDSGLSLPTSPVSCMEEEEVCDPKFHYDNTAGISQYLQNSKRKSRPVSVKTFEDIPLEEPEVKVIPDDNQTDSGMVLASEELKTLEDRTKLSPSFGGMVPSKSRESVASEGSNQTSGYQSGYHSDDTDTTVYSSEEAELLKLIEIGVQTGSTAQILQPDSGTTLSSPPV
Chain of FLT1 (VEGFR1) (P17948 27-1338): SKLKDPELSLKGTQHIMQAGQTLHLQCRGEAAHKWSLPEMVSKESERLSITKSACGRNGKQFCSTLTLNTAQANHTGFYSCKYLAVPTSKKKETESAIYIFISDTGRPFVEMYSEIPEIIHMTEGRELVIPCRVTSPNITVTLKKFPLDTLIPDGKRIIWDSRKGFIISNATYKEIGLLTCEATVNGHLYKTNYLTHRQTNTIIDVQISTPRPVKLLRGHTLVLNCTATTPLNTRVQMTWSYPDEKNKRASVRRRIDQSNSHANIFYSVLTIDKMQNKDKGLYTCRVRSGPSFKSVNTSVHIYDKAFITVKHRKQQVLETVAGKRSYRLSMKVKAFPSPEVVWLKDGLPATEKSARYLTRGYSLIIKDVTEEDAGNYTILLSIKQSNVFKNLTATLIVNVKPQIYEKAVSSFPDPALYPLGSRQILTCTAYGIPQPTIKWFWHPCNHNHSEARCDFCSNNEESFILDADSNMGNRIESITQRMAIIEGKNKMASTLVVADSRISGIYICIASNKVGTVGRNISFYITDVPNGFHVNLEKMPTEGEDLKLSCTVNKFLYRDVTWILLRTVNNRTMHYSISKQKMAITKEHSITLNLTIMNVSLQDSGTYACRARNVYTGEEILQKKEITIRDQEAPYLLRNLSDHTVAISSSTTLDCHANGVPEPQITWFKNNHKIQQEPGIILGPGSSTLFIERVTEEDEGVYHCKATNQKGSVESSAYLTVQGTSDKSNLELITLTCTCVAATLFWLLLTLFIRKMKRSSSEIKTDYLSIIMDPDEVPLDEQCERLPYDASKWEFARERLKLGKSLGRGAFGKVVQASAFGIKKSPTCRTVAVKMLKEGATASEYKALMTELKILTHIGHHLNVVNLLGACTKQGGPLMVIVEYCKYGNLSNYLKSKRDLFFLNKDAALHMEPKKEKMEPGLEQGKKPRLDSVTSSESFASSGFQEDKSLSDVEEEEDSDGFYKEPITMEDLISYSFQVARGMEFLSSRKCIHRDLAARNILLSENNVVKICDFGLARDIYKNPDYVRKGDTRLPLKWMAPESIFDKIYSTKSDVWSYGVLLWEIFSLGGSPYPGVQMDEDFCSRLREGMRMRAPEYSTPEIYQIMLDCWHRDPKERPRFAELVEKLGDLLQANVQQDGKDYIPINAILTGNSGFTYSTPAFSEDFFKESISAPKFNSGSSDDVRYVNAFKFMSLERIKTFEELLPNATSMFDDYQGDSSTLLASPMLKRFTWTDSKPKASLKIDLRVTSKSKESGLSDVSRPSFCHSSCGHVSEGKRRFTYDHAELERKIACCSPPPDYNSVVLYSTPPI

Row | SMILES | IC50 [1] | IC50 [2] | IC50 [3] | IC50 [4] | fraction unbound at 2 h, 2 μM [5] | IC50 [6]
1 | CCN(CC)Cc1ccc(/C=C/c2n[nH]c3cc(Sc4ccc(F)cc4C(=O)NC4CC4)ccc23)nc1 [Compound I-84, N-cyclopropyl-2-({3-[(E)-2-{5-[(diethylamino)methyl]pyridin-2-yl}vinyl]-1H-indazol-6-yl}thio)-5-fluorobenzamide] | – | ≤ 1 nM | – | 1 to 10 nM | > 0.05 | 6000 to 60000 nM
2 | CCNC(=O)c1ccccc1Sc1ccc2c(/C=C/c3ccc(CN(CC)CC)cn3)n[nH]c2c1 [Compound I-86, 2-({3-[(E)-2-{5-[(diethylamino)methyl]pyridin-2-yl}vinyl]-1H-indazol-6-yl}thio)-N-ethylbenzamide] | – | ≤ 1 nM | – | ≤ 1 nM | 0.01 to 0.05 | 6000 to 60000 nM
3 | CCN(CC)Cc1ccc(/C=C/c2n[nH]c3cc(Sc4ccccc4C(=O)NC)ccc23)nc1 [Compound I-90, 2-({3-[(E)-2-{5-[(diethylamino)methyl]pyridin-2-yl}vinyl]-1H-indazol-6-yl}thio)-N-methylbenzamide] | – | ≤ 1 nM | – | 1 to 10 nM | 0.01 to 0.05 | 6000 to 60000 nM
4 | CCN(CC)Cc1ccc(/C=C/c2n[nH]c3cc(Sc4ccccc4C(=O)NCC(F)(F)F)ccc23)nc1 [Compound I-100, 2-({3-[(E)-2-{5-[(diethylamino)methyl]pyridin-2-yl}vinyl]-1H-indazol-6-yl}thio)-N-(2,2,2-trifluoroethyl)benzamide] | – | ≤ 1 nM | – | 1 to 10 nM | > 0.05 | 6000 to 60000 nM
5 | CCNC(=O)c1cc(F)ccc1Sc1ccc2c(/C=C/c3cnn(CCCN4CCCC4)c3)n[nH]c2c1 [Compound I-104, N-ethyl-5-fluoro-2-({3-[(E)-2-{1-[3-(pyrrolidin-1-yl)propyl]-1H-pyrazol-4-yl}vinyl]-1H-indazol-6-yl}thio)benzamide] | – | ≤ 1 nM | – | ≤ 1 nM | > 0.05 | > 60000 nM
6 | CNC(=O)c1ccccc1Sc1ccc2c(/C=C/c3ccc(CCN4CCCC4)cn3)n[nH]c2c1 [Compound I-107, N-methyl-2-({3-[(E)-2-{5-[2-(pyrrolidin-1-yl)ethyl]pyridin-2-yl}vinyl]-1H-indazol-6-yl}thio)benzamide] | – | ≤ 1 nM | – | 1 to 10 nM | 0.01 to 0.05 | 6000 to 60000 nM
7 | CCN(CC)CCc1ccc(/C=C/c2n[nH]c3cc(Sc4ccc(F)cc4C(=O)NC4CC4)ccc23)nc1 [Compound I-109, N-cyclopropyl-2-({3-[(E)-2-{5-[2-(diethylamino)ethyl]pyridin-2-yl}vinyl]-1H-indazol-6-yl}thio)-5-fluorobenzamide] | – | 1 to 5 nM | – | ≤ 1 nM | > 0.05 | 6000 to 60000 nM

More lines, now with the values ahead:

Row | IC50 [1] | IC50 [2] | IC50 [3] | IC50 [4] | fraction unbound at 2 h, 2 μM [5] | IC50 [6] | SMILES
8 | ≤ 1 nM | ≤ 1 nM | ≤ 1 nM | ≤ 1 nM | 0.01 to 0.05 | 6000 to 60000 nM | CNC(=O)c1ccccc1Sc1ccc2c(/C=C/c3ccc(OCCN4CCOCC4)cn3)n[nH]c2c1 [Compound I-3, N-methyl-2-({3-[(E)-2-{5-[2-(morpholin-4-yl)ethoxy]pyridin-2-yl}vinyl]-1H-indazol-6-yl}thio)benzamide]
9 | – | ≤ 1 nM | – | ≤ 1 nM | 0.01 to 0.05 | > 60000 nM | CN1CCC(CCOc2ccc(/C=C/c3n[nH]c4cc(Sc5ccccc5C(=O)NC5CC5)ccc34)nc2)CC1 [Compound I-42, N-cyclopropyl-2-({3-[(E)-2-{5-[2-(1-methylpiperidin-4-yl)ethoxy]pyridin-2-yl}vinyl]-1H-indazol-6-yl}thio)benzamide]
10 | – | ≤ 1 nM | – | ≤ 1 nM | 0.01 to 0.05 | 6000 to 60000 nM | O=C(NC1CC1)c1ccccc1Sc1ccc2c(/C=C/c3cnn(CCCN4CCCC4)c3)n[nH]c2c1 [Compound I-43, N-cyclopropyl-2-({3-[(E)-2-{1-[3-(pyrrolidin-1-yl)propyl]-1H-pyrazol-4-yl}vinyl]-1H-indazol-6-yl}thio)benzamide]
11 | – | ≤ 1 nM | – | ≤ 1 nM | 0.01 to 0.05 | 6000 to 60000 nM | O=C(NC1CC1)c1ccccc1Sc1ccc2c(/C=C/c3ccc(CCN4CCCC4)cn3)n[nH]c2c1 [Compound I-55, N-cyclopropyl-2-({3-[(E)-2-{5-[2-(pyrrolidin-1-yl)ethyl]pyridin-2-yl}vinyl]-1H-indazol-6-yl}thio)benzamide]
12 | – | ≤ 1 nM | – | ≤ 1 nM | 0.01 to 0.05 | 6000 to 60000 nM | O=C(NC1CC1)c1ccccc1Sc1ccc2c(/C=C/c3ccc(CCCN4CCCC4)cn3)n[nH]c2c1 [Compound I-59, N-cyclopropyl-2-({3-[(E)-2-{5-[3-(pyrrolidin-1-yl)propyl]pyridin-2-yl}vinyl]-1H-indazol-6-yl}thio)benzamide]
13 | – | ≤ 1 nM | – | 1 to 10 nM | 0.01 to 0.05 | 6000 to 60000 nM | O=C(NC1CC1)c1ccccc1Sc1ccc2c(/C=C/c3cnn(CCN4CCCC4)c3)n[nH]c2c1 [Compound I-61, N-cyclopropyl-2-({3-[(E)-2-{1-[2-(pyrrolidin-1-yl)ethyl]-1H-pyrazol-4-yl}vinyl]-1H-indazol-6-yl}thio)benzamide]
14 | – | ≤ 1 nM | – | 1 to 10 nM | > 0.05 | 6000 to 60000 nM | O=C(NC1CC1)c1cccc(F)c1Sc1ccc2c(/C=C/c3ccc(CN4CCCC4)cn3)n[nH]c2c1 [Compound I-67]
15 | – | ≤ 1 nM | – | ≤ 1 nM | 0.01 to 0.05 | 6000 to 60000 nM | CCN(CC)Cc1ccc(/C=C/c2n[nH]c3cc(Sc4ccccc4C(=O)NC4CC4)ccc23)nc1 [Compound I-78, N-cyclopropyl-2-({3-[(E)-2-{5-[(diethylamino)methyl]pyridin-2-yl}vinyl]-1H-indazol-6-yl}thio)benzamide]
16 | – | ≤ 1 nM | – | ≤ 1 nM | 0.01 to 0.05 | 6000 to 60000 nM | O=C(NC1CC1)c1cc(F)ccc1Sc1ccc2c(/C=C/c3ccc(CN4CCCC4)cn3)n[nH]c2c1 [Compound I-80, N-cyclopropyl-5-fluoro-2-({3-[(E)-2-{5-[(pyrrolidin-1-yl)methyl]pyridin-2-yl}vinyl]-1H-indazol-6-yl}thio)benzamide]
17 | – | ≤ 1 nM | – | ≤ 1 nM | > 0.05 | 6000 to 60000 nM | CCN(CC)Cc1ccc(/C=C/c2n[nH]c3cc(Sc4cc(F)ccc4C(=O)NC4CC4)ccc23)nc1 [Compound I-83, N-cyclopropyl-2-({3-[(E)-2-{5-[(diethylamino)methyl]pyridin-2-yl}vinyl]-1H-indazol-6-yl}thio)-4-fluorobenzamide]
